Residues, ends and D or L forms follow the SMILES beside them.

A short description of the data set: Identification of absorbed peptides in plasma (PDA-HPLC, LC-MS/MS). The data set is classed as in vivo. The note with it: pigs fed Peptide Composition 1 (Example 1), blood collected during dissection; 3 peptide peaks present. Here is the method: First, between 3 and 5 day-old 18 pigs were divided into 3 groups and they were bred for 3 days. Then the groups were designated as test groups (Example 1 and Comparative Example 1) and a control group (Comparative Example 2) and 1.25 g of dextran sulfate per kg of body weight was given as drinking water for 5 days (DSS treatment). Then, 250 mg of Peptide Composition 1 per kg of body weight was fed for 5 days in Example 1, 250 mg of Peptide Composition 2 per kg of body weight was fed for 5 days in Comparative Example 1, and alanine corresponding to the nitrogen content of the peptide was fed in Comparative Example 2. After that, the intestinal tract cells were collected during dissection and cytokines were measured. Comparative Example 2 corresponds to the control. (Dextran sulfate is a substance which induces bowel inflammation. International J. of Colorectal Disease, 15, 144-160 (2000))
Blood was collected during dissection and plasma was isolated, and then the structural analysis of a peak obtained by PDA-HPLC was carried out by LC-MS/MS to identify an amino acid sequence of the peptides.

Regarding `CC(C)C[C@H](NC(=O)[C@@H](N)Cc1ccccc1)C(=O)N[C@H](C(=O)O)C(C)C` [FLV, Phe-Leu-Val] (H-Phe-Leu-Val-OH; N-terminus and C-terminus assumed), the “peptide peak present in plasma” value is reported as “largest peak”.

These data come from US20120157395A1, “ANTI-INFLAMMATORY AGENT FOR ORAL APPLICATION, AND ANTI-INFLAMMATORY PEPTIDE FOR ORAL APPLICATION” (priority 2009, published 2012).
